Key:
GPR49 = molecular target: T1, GPR49 (Homo sapiens, UniProt O75473); assay: Internalization of GPR49 in Lovo colon tumor cells (confocal); format: cell-based; settings: 10 ug/ml, 37° C., 60 min
T1 construct: endogenous in cells; host or cells: Lovo colon tumor cells
T1 sequence (O75473 22-907): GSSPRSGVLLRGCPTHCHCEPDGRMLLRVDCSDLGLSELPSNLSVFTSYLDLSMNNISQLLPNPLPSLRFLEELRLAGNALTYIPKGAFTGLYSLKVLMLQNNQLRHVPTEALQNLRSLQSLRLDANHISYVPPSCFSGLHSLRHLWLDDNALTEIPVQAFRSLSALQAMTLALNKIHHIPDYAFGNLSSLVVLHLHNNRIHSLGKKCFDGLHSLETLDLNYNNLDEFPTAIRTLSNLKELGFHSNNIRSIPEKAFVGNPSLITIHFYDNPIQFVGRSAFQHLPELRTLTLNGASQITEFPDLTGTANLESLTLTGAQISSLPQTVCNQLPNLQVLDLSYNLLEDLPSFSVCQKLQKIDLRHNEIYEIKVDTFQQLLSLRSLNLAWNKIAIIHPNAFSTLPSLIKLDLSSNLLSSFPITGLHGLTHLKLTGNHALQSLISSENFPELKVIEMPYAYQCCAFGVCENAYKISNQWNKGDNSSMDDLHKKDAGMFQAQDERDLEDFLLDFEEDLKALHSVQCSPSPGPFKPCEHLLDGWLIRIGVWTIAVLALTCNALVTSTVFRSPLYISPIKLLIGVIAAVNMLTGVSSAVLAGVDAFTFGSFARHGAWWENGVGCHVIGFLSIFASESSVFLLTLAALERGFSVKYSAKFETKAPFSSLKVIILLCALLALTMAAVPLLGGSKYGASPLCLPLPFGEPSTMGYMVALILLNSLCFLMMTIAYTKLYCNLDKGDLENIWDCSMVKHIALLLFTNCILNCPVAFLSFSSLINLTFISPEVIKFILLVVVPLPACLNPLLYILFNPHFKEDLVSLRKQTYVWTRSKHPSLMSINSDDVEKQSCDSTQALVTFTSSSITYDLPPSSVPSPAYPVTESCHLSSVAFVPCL
Procedure: Methods: Lovo colon tumor cells were seeded at 50,000 cells per well into 8 well chamber slides (Becton Dickinson Collagen Type 1 coated culture slides, BD BioCoat™#354630) 48 hours prior to staining procedures. Cells were routinely maintained below 20 passages. On day of staining procedures, culture media was discarded from each well and replaced with 500 ul cold incubation buffer (MEM Eagle ATCC #30-2003+1% BSA). Cells were washed 2× with this buffer for 3 min each wash. 250 ul of each mAb (76C12, 78F05 and murine 10A9.2) to be tested was then added to the appropriate well at a concentration of 10 ug/ml, diluted in incubation media, and incubated on ice for 1 hour. A human anti-human-IGF-1R antibody was used as a positive control to compare degree of internalization. Antibody 5A7 (anti-Id mAb), IDEC152 (anti-CD23 IgG1 mAb) and no antibody were used as negative controls. After the 45 minutes incubation on ice, the time zero (1=0′) slide washed 3× with 500 ul of cold wash buffer (PBS+1% BSA+2% Goat serum) for 3 min each wash (slides always kept on ice). The t=0 slide was then fixed with 500 ul […] (diluted with PBS from 16% stock; EMS #15710) for 15 minutes at room temperature. The t=0 slide was then washed again 3× with cold wash buffer for 3 minutes each wash, then left on ice. […]

[1] = tested on: CT1 primary xenograft cells; assay: CT1 primary xenograft, murine mAbs in combination with Irinotecan; format: in vivo, SCID beige female mice; settings: Irinotecan 10 mg/kg IP once per day for the first 5 days
Procedure: Single agent in vivo efficacy of murine antibodies 14F7.1, 18G7.1, 5B10.1, 14A8.1, 1B3.5 was evaluated in a primary colon tumor xenograft model system using CT1 primary xenograft cells. CT1 is a primary colorectal (CRC) in vivo xenograft tumor established from a fresh CRC patient tumor sample. The mutational status was determined by Ion Torrent deep sequencing to identify oncogene mutations. Approximately 5-15% of CT1 tumors express GPR49. SCID beige female mice were inoculated with CT1 tumor cells and monitored for tumor growth. Mice were randomized at day 0 into groups of 10 when mean tumor volume reached 175 mm^3. Chemotherapeutic Irinotecan was administered IP at 10 mg/kg once per day for the first 5 days. The antibodies were administered intraperitoneally (i.p.) at 15 mg/kg administered twice weekly for 4 weeks. Tumors were measured at the indicated intervals post-inoculation for total tumor volume.

colon tumor cells = assay: Secondary transplant tumor formation after GPR49 mAb+irinotecan (Example 30); format: in vivo, mice; settings: 140 day follow-up
Text: Isolated tumor cells from control or GPR49 mAb+irinotecan treated tumors from the in vivo study outlined in Example 3 were harvested, pooled, dissociated and re-implanted in a limiting dilution secondary transplant assay to measure cancer stem cell frequency. For each treatment group, 8 mice were implanted with 10, 30, 100 cells. […]

## IDEC152: primatized anti-CD23 IgG1 mAb, negative control
GPR49
  internalization of GPR49: did not bind or internalize

## CCc1c2c(nc3ccc(OC(=O)N4CCC(N5CCCCC5)CC4)cc13)-c1cc3c(c(=O)n1C2)COC(=O)[C@]3(O)CC [Irinotecan]
[1]
  tumor inhibition by Irinotecan alone: 45%
Colon tumor cells; cells from irinotecan treated tumors
  average size of tumors: 1729 mm^3
Colon tumor cells; cells from pre-treated tumors
  mice with tumors: 5/8

Source: patent US10196442B2, “Methods of inhibiting growth of a colon cancer tumor in a subject by administering monoclonal antibodies to G protein-coupled receptor 49 (GPR49)” (Bionomics Inc., priority 2011, dated 2019)
